Results from BindingDB's records for doi:10.1016/s0960-894x(03)00584-5 (Schering-Plough Research Institute, 2003).

Molecular target: Hepatitis C virus NS3 protease (Hepatitis C virus)
Assay: Inhibitory activity evaluated in the HCV protease binding assay

IC50: 2.8 µM
Structure (SMILES): O=C1OC[C@H]2O[C@@H](Oc3cc(O)c4c(c3)OC(c3ccccc3)CC4=O)[C@H](O)[C@@H](O)[C@@H]2OC(=O)c2cc(O)c(O)c(O)c2-c2c1cc(O)c(O)c2O (stereo partly specified) [2,3,4,5,6,7,14,15-octahydroxy-13-(5-hydroxy-4-oxo-2-phenyl-3,4-dihydro-2H-7-chromenyloxy)-9,11,11a,13,14,15,15a,17-octahydrodibenzo[g,i]pyrano[3,2-b][1,5]dioxacycloundecine-9,17-dione]
